Laboratory results: ChEMBL document CHEMBL3808296, “A combined in silico/in vitro approach unveils common molecular requirements for efficient BVDV RdRp binding of linear aromatic N-polycyclic systems” (Eur J Med Chem, 2016)

Legend:
[1] = Antiviral activity against BVDV NADL infected in MDBK cells assessed as inhibition of virus induced cytopathogenicity after 3 to 4 days by MTT assay; assay type: functional, cell-based, Bovine viral diarrhea virus 1-NADL; conditions: Bovine viral diarrhea virus isolates and strains
[2] = Cytotoxicity against mock-infected african green monkey Vero 76 cells assessed as reduction in cell viability after 48 to 96 hrs by MTT assay; assay type: cell-based; conditions: chlorocebus sabaeus, mock-infected Vero 76 cells
[3] = Selectivity index, ratio of CC50 for MDBK cells to EC50 for […] NADL infected in MDBK cells
[4] = Cytotoxicity against mock-infected MDBK cells assessed as reduction in cell viability after 72 hrs by MTT assay; assay type: cell-based, Bos taurus; conditions: cattle
Coxsackievirus B2 = test: Antiviral activity against CVB-2 infected in Vero 76 cells after 3 days by crystal violet staining based plaque reduction assay; assay type: functional, organism-based; conditions: Enterovirus B, Vero 76, 72 h
[5] = test system: Respiratory syncytial virus; test: Antiviral activity against Respiratory syncytial virus A2 infected in Vero 76 cells after 5 days by crystal violet staining based plaque reduction assay; assay type: functional, organism-based; conditions: human respiratory syncytial virus, A2, Vero 76, 120 h
[6] = test system: Vesicular stomatitis virus; test: Antiviral activity against Vesicular stomatitis virus Indiana infected in Vero 76 cells after 2 days by crystal violet staining based plaque reduction assay; assay type: functional, organism-based; conditions: Vero 76, 48 h
Poliovirus 1 = test: Antiviral activity against Human poliovirus 1 strain Sabin infected in Vero 76 cells after 2 days by crystal violet staining based plaque reduction assay; assay type: functional, organism-based; conditions: Enterovirus C, Vero 76, 48 h
[7] = test system: Mammalian orthoreovirus 1; test: Antiviral activity against Reovirus type-1 3651 infected in BHK21 cells assessed as inhibition of virus induced cytopathogenicity after 3 to 4 days by MTT assay; assay type: functional, cell-based; conditions: Mammalian orthoreovirus 1, 3651, BHK-21
Yellow fever virus = test: Antiviral activity against Yellow fever virus 17D infected in BHK21 cells assessed as inhibition of virus induced cytopathogenicity after 3 to 4 days by MTT assay; assay type: functional, cell-based; conditions: BHK-21
Vaccinia virus = test: Antiviral activity against Vaccinia virus Elstree infected in Vero 76 cells after 3 days by crystal violet staining based plaque reduction assay; assay type: functional, organism-based; conditions: Orthopoxvirus vaccinia, Vero 76, 72 h
[8] = Cytotoxicity against mock-infected BHK21 cells assessed as reduction in cell viability after 72 hrs by MTT assay; assay type: cell-based, Mesocricetus auratus, BHK-21; conditions: hamster
[9] = Inhibition of His tagged BVDV NS5B Cdelta24 RNA dependent RNA polymerase expressed in Escherichia coli Rosetta DE3 preincubated for 30 mins followed by addition of GTP measured after 120 mins by fluorescence analysis; set-up: species or system Bovine viral diarrhea virus 1
[10] = Inhibition of His tagged BVDV NS5B Cdelta24 RNA dependent RNA polymerase K263A mutant expressed in Escherichia coli Rosetta DE3 preincubated for 30 mins followed by addition of GTP measured after 120 mins by fluorescence analysis; set-up: species or system Bovine viral diarrhea virus 1
[11] = Inhibition of BVDV RNA-dependent RNA polymerase; set-up: species or system Bovine viral diarrhea virus 1
[12] = Inhibition of HCV RNA-dependent RNA polymerase; set-up: species or system Hepacivirus hominis
[13] = test system: Bovine viral diarrhea virus 1; test: Antiviral activity against BVDV; assay type: functional, organism-based; conditions: Bovine viral diarrhea virus isolates and strains

Row | SMILES | EC50 [1] | CC50 [2] | Ratio CC50/EC50 [3] | CC50 at 72 h [4] | EC50 (Coxsackievirus B2) | EC50 (Vaccinia virus) | CC50 at 72 h [8] | also measured
1 | Cn1c(=O)c(-c2cccs2)nc2c(Cl)c3ncccc3cc21 | 2 µM |  |  |  |  |  |  | 
2 | O=c1cnn([C@@H]2O[C@H](CO)[C@@H](O)[C@H]2O)c(=O)[nH]1 [6-AZAURIDINE] |  | > 12.5 µM |  |  |  |  |  | 
3 | Clc1c2ncccc2cc2nc(-c3ccoc3)[nH]c12 | 2 µM |  | >50 | > 100 µM |  |  |  | 
4 | FC(F)(F)c1ccc(-c2nc3cc4cccnc4c(Cl)c3[nH]2)cc1 | 2 µM | > 100 µM | >50 | > 100 µM | > 100 µM | > 100 µM | > 100 µM | EC50 [5]: > 100 µM; EC50 [6]: > 100 µM; EC50 (Poliovirus 1): > 100 µM; EC50 [7]: > 100 µM; EC50 (Yellow fever virus): > 56 µM
5 | COc1nc2cc3cccnc3c(Cl)c2nc1C(C)C | > 100 µM |  |  |  |  |  |  | 
6 | COc1ccc(-c2nc3cc(/C(C)=N/NC(N)=S)ccc3[nH]2)c(OC)c1 | 0.002 µM |  |  |  |  |  |  | 
7 | N#Cc1ccc(-c2nc3ccncc3[nH]2)cc1 | 9 µM |  |  |  |  |  |  | 
8 | N#Cc1ccc(-c2nc3cc4cccnc4cc3[nH]2)cc1 | 4 µM | 30 µM | >25 | > 100 µM | > 30 µM | > 100 µM | 21 µM | EC50 [5]: > 16 µM; EC50 [6]: > 100 µM; EC50 (Poliovirus 1): > 30 µM; EC50 [7]: 7 µM; EC50 (Yellow fever virus): > 21 µM
9 | N#Cc1ccc(-c2nc3cc4cccnc4c(Cl)c3[nH]2)cc1 | 0.3 µM |  | >333.3 | > 100 µM |  |  |  | IC50 [9]: 0.48 µM; IC50 [10]: 0.75 µM
10 | Fc1ccc(-c2nc3cc4cccnc4cc3[nH]2)c(F)c1 | 6 µM | > 100 µM | >16.7 | > 100 µM | 35 µM | > 100 µM | > 100 µM | EC50 [5]: > 58 µM; EC50 [6]: > 100 µM; EC50 (Poliovirus 1): > 100 µM; EC50 [7]: 10 µM; EC50 (Yellow fever virus): > 100 µM
11 | CC(=O)c1ccc(-c2nc3cc4cccnc4c(Cl)c3[nH]2)cc1 | 5.8 µM | > 100 µM | >17.2 | > 100 µM | > 100 µM | > 100 µM | > 100 µM | EC50 [5]: > 100 µM; EC50 [6]: > 100 µM; EC50 (Poliovirus 1): > 100 µM; EC50 [7]: 60 µM; EC50 (Yellow fever virus): > 100 µM
12 | COc1ccc(-c2nc3cc4cccnc4cc3[nH]2)c(OC)c1 | 3.4 µM | 90 µM | >29.4 | > 100 µM | 12 µM | 16 µM | 45 µM | EC50 [5]: > 45 µM; EC50 [6]: > 90 µM; EC50 (Poliovirus 1): 16 µM; EC50 [7]: 38 µM; EC50 (Yellow fever virus): > 45 µM
13 | NC(=O)c1ncn([C@@H]2O[C@H](CO)[C@@H](O)[C@H]2O)n1 [RIBAVIRIN] | 1.3 µM |  | 3.8 | 5 µM |  |  |  | 
14 | COc1ccc(-c2nc3cc4cccnc4c(Cl)c3[nH]2)c(OC)c1 | 6.3 µM | > 100 µM | >15.9 | > 100 µM | 29 µM | 13 µM | > 100 µM | EC50 [5]: 10 µM; EC50 [6]: > 100 µM; EC50 (Poliovirus 1): 41 µM; EC50 [7]: > 100 µM; EC50 (Yellow fever virus): 95 µM
15 | O=c1[nH]c2cc3cccnc3c(Cl)c2nc1-c1cccs1 | 5 µM |  |  |  |  |  |  | 
16 | O=c1cnc2c(Cl)c3ncccc3cc2[nH]1 | > 100 µM |  |  |  |  |  |  | 
17 | CC(=O)c1ccc(-c2nc3cccnc3[nH]2)cc1 | > 100 µM |  |  |  |  |  |  | 
18 | CC(=O)c1ccc(-c2nc3ccncc3[nH]2)cc1 | 7 µM |  |  |  |  |  |  | IC50 [9]: 11 µM; IC50 [10]: 15 µM

Row | SMILES | EC50 [1] | CC50 [2] | Ratio CC50/EC50 [3] | CC50 at 72 h [4] | EC50 (Coxsackievirus B2) | EC50 (Vaccinia virus) | CC50 at 72 h [8] | also measured
19 | FC(F)(F)c1ccc(-c2nc3cc4cccnc4cc3[nH]2)cc1 | 7 µM | > 100 µM | >14.2 | > 100 µM | > 100 µM | > 100 µM | > 100 µM | EC50 [5]: > 100 µM; EC50 [6]: > 100 µM; EC50 (Poliovirus 1): 67 µM; EC50 [7]: 52 µM; EC50 (Yellow fever virus): > 100 µM
20 | CC(C)c1nc2c(Cl)c3ncccc3cc2[nH]c1=O | > 100 µM |  |  |  |  |  |  | 
21 | O=[N+]([O-])c1ccc(-c2nc3cc4cccnc4c(Cl)c3[nH]2)cc1 |  |  |  | > 100 µM |  |  |  | IC50 [11]: 0.06 µM; IC50 [12]: 8 µM; EC50 [13]: 1.2 µM
22 | N#Cc1ccc(/C=N/c2cc3cccnc3c(Cl)c2N)cc1 | 2 µM |  |  |  |  |  |  | 
23 | C#C[C@@]1(O)[C@H](O)[C@@H](CO)O[C@H]1n1ccc(N)nc1=O [2'-ETHYNYL-D-CYTIDINE] |  | > 100 µM |  |  | 27 µM |  |  | 
24 | C[C@@]1(O)[C@H](O)[C@@H](CO)O[C@H]1n1cnc2c(=O)[nH]c(N)nc21 [2'-B-METHYL-GUANOSINE] |  |  | >9.1 | > 10 µM |  |  | > 10 µM | 
25 | O=[N+]([O-])c1ccc(-c2nc3cc4cccnc4c(Cl)c3n2CC2CCCCC2)cc1 | 5 µM | 20 µM | >6.6 | 33 µM | > 20 µM | > 20 µM | 16 µM | EC50 [5]: > 20 µM; EC50 [6]: > 20 µM; EC50 (Poliovirus 1): > 20 µM; EC50 [7]: ≥ 16 µM; EC50 (Yellow fever virus): > 13 µM
26 | CCn1c(=O)c(-c2ccccc2)nc2c(Cl)c3ncccc3cc21 | > 100 µM |  |  |  |  |  |  | 
27 | Nc1nc2c(ncn2COCCO)c(=O)[nH]1 [ACYCLOVIR] |  | > 100 µM |  |  |  | 1.5 µM |  | 
28 | COc1c(C)c2c(c(O)c1C/C=C(\C)CCC(=O)O)C(=O)OC2 [MYCOPHENOLIC ACID] |  | > 12.5 µM |  |  |  |  |  | 
29 | O=[N+]([O-])c1c2cccnc2c(Cl)c2[nH]nnc12 |  |  |  |  |  |  |  | IC50 [9]: 9 µM; IC50 [10]: 140 µM
30 | Nc1c(/N=C/c2ccc([N+](=O)[O-])cc2)cc2cccnc2c1Cl | 1.7 µM |  |  |  |  |  |  | IC50 [9]: 0.81 µM; IC50 [10]: 1 µM
31 | NS(=O)(=O)c1ccc(-c2nc3cc4cccnc4c(Cl)c3[nH]2)cc1 | > 100 µM | > 100 µM |  | > 100 µM | > 100 µM | > 100 µM | > 100 µM | EC50 [5]: 18 µM; EC50 [6]: > 100 µM; EC50 (Poliovirus 1): 21 µM; EC50 [7]: > 100 µM; EC50 (Yellow fever virus): > 100 µM
32 | CSc1ccc(-c2nc3cc4cccnc4c(Cl)c3[nH]2)cc1 | 6.1 µM | > 100 µM | >16.4 | > 100 µM | > 100 µM | > 100 µM | > 100 µM | EC50 [5]: > 100 µM; EC50 [6]: > 100 µM; EC50 (Poliovirus 1): > 100 µM; EC50 [7]: 100 µM; EC50 (Yellow fever virus): > 100 µM
33 | COc1ccc(-c2nc3cc4cccnc4c(Cl)c3n2CC2CCCCC2)cc1 | 5 µM |  | 4 | 20 µM |  |  |  | 
34 | COc1nc2cc3cccnc3c(Cl)c2nc1-c1cccs1 | 1.3 µM |  |  |  |  |  |  | IC50 [9]: 0.64 µM; IC50 [10]: 0.96 µM
35 | C[C@@]1(O)[C@H](O)[C@@H](CO)O[C@H]1n1ccc(N)nc1=O |  |  |  |  |  |  | > 100 µM | 
